# Measurements as given in ChEMBL document CHEMBL3390834, “Development of second generation epigenetic agents” (Medchemcomm, 2012).
# Key:
# [1] = biological target: T1, Histone acetyltransferase p300 (Homo sapiens, UniProt Q09472); test: biochemical
# Description: Inhibition of His6-tagged recombinant full length p300 (unknown origin) expressed in baculovirus infected insect Sf21 cells using [3H]acetyl-CoA as substrate preincubated for 10 mins followed by substrate addition measured after 10 mins by liquid scintillation counting analysis
# [2] = biological target: Histone acetyltransferase KAT2B (Homo sapiens, UniProt Q92831); test: Inhibition of FLAG epitope-tagged recombinant human PCAF expressed in baculovirus infected insect Sf21 cells using [3H]acetyl-CoA as substrate preincubated for 10 mins followed by substrate addition measured after 10 mins by liquid scintillation counting analysis
# [3] = biological target: T2, Lysine-specific histone demethylase 1A (Homo sapiens, UniProt O60341); test: Inhibition of N-terminal His-6-tagged full length human LSD-1 expressed in Escherichia coli BL21 (DE3) using H3K4me2 peptide as substrate by Western blotting analysis
# [4] = biological target: T2, Lysine-specific histone demethylase 1A; test: Inhibition of LSD-1 (unknown origin)
# Homo sapiens [5] = species on record: Homo sapiens; test: Selectivity ratio of IC50 for MAO-B (unknown origin) to IC50 for LSD-1 (unknown origin)
# [6] = biological target: NAD-dependent protein deacetylase sirtuin-1 (Homo sapiens, UniProt Q96EB6); test: Inhibition of human SIRT-1
# [7] = biological target: T3, NAD-dependent protein deacetylase sirtuin-2 (Homo sapiens, UniProt Q8IXJ6); test: Inhibition of human SIRT-2
# T3 sequence (Q8IXJ6 whole entry): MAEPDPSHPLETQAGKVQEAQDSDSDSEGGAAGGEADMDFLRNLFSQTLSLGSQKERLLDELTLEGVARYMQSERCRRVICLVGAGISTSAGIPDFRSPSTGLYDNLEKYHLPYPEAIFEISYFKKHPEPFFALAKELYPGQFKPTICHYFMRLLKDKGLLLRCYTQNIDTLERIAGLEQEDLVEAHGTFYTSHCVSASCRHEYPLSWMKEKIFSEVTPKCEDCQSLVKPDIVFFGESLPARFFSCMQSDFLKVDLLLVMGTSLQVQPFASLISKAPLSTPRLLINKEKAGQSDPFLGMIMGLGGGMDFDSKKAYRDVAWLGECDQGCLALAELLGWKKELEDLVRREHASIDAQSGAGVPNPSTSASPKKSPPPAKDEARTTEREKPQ
# Saccharomyces cerevisiae = test: Selectivity for yeast Sir2p over yeast Hst1p
# [8] = biological target: Protein arginine N-methyltransferase 1 (Homo sapiens, UniProt Q99873); test: Inhibition of human recombinant PRMT-1 using Npl3p as substrate
# Homo sapiens [9] = species on record: Homo sapiens; test: Selectivity ratio of IC50 for human CARM-1 to IC50 for human recombinant PRMT-1
# Homo sapiens [10] = species on record: Homo sapiens; test: Selectivity ratio of IC50 for SET7 (unknown origin) to IC50 for human recombinant PRMT-2
# [11] = biological target: T3, NAD-dependent protein deacetylase sirtuin-2; test: Inhibition of SIRT-2 (unknown origin)
# Histone deacetylase 1 = Histone deacetylase 1 (Homo sapiens, UniProt Q13547)
# Description: Inhibition of HDAC-1 (unknown origin) using (FAM)-labeled acetylated peptide as substrate after 17 hrs by fluorescence assay
# [12] = biological target: T2, Lysine-specific histone demethylase 1A; test: Inhibition of N-terminal His-6-tagged full length human LSD-1 expressed in Escherichia coli BL21 (DE3) using H3K4me2 peptide as substrate at 1 uM by Western blotting analysis relative to control
# [13] = biological target: Histone-lysine N-methyltransferase SUV39H1 (Homo sapiens, UniProt O43463); test: Inhibition of SUV39H1 (unknown origin) by DELFIA
# [14] = biological target: Histone-lysine N-methyltransferase EHMT2 (Homo sapiens, UniProt Q96KQ7)
# Description: Inhibition of recombinant GST-tagged G9a (685 to 1000 amino acids) (unknown origin) expressed in Escherichia coli BL21 using biotinylated histone H3 peptide as substrate by DELFIA
# [15] = Inhibition of yeast Sir2p HAD activity using [3H]-acetylated histone H4 as substrate assessed as release of free [3H]-acetate after 16 hrs; set-up: species or system Saccharomyces cerevisiae
# [16] = biological target: T3, NAD-dependent protein deacetylase sirtuin-2
# Description: Inhibition of recombinant human N-terminal His6-tagged SIRT-2 using ZMAL as substrate after 4 hrs by homogeneous fluorescent deacetylase assay
# [17] = biological target: T3, NAD-dependent protein deacetylase sirtuin-2; test: Inhibition of human SIRT-2 using fluor de Lys as substrate after 2 hrs by fluorescence assay
# [18] = biological target: T4, Histone-arginine methyltransferase CARM1 (Homo sapiens, UniProt Q86X55); test: Inhibition of full-length GST-tagged CARM-1 (unknown origin) expressed in Spodoptera frugiperda cells using histone H3 and tritiated-SAM as substrate
# T4 sequence (Q86X55 whole entry): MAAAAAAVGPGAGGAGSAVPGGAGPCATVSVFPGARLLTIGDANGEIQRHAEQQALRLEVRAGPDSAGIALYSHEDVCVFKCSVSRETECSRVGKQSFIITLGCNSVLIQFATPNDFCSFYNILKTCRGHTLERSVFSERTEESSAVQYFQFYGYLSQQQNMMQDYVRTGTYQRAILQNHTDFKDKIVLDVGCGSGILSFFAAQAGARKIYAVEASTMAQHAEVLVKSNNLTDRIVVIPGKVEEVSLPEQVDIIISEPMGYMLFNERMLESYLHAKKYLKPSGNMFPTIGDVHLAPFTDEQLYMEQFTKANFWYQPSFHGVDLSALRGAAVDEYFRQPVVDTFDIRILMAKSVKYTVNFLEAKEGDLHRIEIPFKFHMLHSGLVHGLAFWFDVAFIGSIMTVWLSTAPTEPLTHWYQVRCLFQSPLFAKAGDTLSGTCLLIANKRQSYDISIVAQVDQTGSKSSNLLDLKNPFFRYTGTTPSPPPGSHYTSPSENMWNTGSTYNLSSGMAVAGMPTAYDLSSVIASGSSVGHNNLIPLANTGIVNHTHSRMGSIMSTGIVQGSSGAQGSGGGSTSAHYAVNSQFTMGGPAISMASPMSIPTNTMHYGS
# [19] = Inhibition of HAT isolated from human HeLa cell nuclear extracts using biotinylated histone H4 peptide as substrate after 8 mins
# [20] = biological target: T1, Histone acetyltransferase p300; test: Inhibition of p300 (unknown origin)
# [21] = Growth inhibition of human KYSE-150 cells after 48 hrs; type: functional; settings: KYSE-150, 48 h
# Histone deacetylase 2 = Histone deacetylase 2 (Homo sapiens, UniProt Q92769); test: Inhibition of HDAC-2 (unknown origin) using (FAM)-labeled acetylated peptide as substrate after 17 hrs by fluorescence assay
# Histone deacetylase 3 = Histone deacetylase 3 (Homo sapiens, UniProt O15379); test: Inhibition of HDAC-3 (unknown origin) using (FAM)-labeled acetylated peptide as substrate after 17 hrs by fluorescence assay
# T1 sequence (Q09472 whole entry): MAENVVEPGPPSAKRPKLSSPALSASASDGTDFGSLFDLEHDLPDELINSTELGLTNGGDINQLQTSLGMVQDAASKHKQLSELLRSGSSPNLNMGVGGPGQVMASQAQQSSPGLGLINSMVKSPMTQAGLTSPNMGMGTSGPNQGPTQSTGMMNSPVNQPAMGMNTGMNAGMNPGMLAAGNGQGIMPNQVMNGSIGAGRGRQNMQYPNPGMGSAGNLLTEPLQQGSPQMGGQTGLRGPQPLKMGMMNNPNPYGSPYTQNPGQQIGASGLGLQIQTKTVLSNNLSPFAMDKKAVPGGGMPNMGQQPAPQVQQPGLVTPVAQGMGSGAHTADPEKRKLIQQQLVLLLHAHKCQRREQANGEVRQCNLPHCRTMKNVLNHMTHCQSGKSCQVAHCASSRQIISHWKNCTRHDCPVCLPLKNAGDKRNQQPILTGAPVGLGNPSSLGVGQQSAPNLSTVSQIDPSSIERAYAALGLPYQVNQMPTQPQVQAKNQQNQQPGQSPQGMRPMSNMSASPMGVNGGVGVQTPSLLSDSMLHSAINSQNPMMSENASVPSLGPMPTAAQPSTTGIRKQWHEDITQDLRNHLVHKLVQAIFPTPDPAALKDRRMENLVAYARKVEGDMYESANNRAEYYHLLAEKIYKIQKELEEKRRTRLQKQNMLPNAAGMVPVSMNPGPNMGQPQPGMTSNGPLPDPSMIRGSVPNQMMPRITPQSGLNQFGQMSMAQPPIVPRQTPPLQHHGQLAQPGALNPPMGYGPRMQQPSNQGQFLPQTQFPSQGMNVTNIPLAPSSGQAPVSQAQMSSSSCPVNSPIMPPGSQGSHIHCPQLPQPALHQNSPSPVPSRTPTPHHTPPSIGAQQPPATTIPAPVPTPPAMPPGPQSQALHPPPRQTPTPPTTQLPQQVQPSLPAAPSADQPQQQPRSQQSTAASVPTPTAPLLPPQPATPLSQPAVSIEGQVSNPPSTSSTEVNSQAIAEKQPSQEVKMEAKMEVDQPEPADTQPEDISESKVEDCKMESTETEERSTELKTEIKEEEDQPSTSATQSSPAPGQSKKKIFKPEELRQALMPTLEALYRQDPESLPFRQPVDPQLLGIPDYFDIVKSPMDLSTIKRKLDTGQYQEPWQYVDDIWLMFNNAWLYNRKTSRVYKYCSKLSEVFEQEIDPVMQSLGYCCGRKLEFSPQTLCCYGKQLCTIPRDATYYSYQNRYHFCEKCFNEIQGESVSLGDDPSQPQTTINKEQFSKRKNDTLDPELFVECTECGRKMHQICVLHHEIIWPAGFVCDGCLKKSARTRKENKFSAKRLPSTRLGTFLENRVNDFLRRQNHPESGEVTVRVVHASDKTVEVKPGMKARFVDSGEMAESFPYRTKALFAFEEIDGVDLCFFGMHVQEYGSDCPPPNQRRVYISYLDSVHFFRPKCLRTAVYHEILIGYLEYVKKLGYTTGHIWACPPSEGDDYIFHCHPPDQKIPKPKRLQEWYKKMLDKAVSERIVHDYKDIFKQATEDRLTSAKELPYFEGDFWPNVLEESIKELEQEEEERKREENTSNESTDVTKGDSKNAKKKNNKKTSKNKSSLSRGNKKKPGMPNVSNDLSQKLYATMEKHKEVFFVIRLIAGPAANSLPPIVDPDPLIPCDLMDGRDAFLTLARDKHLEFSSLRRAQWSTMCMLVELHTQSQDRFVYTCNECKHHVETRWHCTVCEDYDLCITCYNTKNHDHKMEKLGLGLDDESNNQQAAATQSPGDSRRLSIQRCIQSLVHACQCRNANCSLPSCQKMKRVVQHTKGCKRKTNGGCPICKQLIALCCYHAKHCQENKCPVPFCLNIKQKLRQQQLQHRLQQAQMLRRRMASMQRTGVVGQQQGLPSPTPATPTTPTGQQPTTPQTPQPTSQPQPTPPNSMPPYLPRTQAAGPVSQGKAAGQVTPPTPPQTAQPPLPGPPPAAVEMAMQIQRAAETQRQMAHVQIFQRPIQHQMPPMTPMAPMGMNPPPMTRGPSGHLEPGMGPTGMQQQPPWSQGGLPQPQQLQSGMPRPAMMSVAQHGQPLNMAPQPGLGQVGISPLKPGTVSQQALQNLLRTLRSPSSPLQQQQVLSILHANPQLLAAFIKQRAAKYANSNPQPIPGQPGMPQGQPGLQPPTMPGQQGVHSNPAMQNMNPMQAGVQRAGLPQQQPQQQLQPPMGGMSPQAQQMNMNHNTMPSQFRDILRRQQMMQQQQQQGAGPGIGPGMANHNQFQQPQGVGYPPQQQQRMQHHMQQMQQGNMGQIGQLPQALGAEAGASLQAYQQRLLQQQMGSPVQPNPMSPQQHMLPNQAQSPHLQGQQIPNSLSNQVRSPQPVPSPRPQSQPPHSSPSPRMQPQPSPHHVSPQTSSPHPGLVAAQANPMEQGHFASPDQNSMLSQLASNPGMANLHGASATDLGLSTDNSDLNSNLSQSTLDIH
# Histone deacetylase 1, sequence (Q13547 whole entry): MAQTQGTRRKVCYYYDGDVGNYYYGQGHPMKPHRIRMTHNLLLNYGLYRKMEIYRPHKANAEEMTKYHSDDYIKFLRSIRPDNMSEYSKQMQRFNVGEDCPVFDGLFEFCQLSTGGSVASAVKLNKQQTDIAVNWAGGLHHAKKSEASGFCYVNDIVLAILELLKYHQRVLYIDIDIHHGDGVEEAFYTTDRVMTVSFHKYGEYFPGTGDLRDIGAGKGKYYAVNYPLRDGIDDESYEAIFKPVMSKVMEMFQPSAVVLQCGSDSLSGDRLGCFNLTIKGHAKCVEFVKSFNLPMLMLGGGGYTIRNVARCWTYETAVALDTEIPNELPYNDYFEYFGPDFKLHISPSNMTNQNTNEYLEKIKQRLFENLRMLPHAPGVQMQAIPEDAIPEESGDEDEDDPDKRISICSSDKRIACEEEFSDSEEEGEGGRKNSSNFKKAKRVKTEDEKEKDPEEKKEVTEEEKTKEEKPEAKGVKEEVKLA
# Histone-lysine N-methyltransferase SUV39H1, sequence (O43463 whole entry): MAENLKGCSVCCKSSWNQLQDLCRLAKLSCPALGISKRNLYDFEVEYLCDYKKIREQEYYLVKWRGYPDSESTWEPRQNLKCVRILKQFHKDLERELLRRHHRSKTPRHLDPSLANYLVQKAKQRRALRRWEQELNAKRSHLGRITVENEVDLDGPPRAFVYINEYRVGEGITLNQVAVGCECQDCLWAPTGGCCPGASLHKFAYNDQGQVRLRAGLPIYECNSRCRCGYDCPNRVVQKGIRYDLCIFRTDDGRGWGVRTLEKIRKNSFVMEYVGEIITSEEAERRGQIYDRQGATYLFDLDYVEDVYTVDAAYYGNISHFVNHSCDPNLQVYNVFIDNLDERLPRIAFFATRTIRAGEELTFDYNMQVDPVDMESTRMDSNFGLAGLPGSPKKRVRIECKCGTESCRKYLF
# Histone deacetylase 2, sequence (Q92769 whole entry): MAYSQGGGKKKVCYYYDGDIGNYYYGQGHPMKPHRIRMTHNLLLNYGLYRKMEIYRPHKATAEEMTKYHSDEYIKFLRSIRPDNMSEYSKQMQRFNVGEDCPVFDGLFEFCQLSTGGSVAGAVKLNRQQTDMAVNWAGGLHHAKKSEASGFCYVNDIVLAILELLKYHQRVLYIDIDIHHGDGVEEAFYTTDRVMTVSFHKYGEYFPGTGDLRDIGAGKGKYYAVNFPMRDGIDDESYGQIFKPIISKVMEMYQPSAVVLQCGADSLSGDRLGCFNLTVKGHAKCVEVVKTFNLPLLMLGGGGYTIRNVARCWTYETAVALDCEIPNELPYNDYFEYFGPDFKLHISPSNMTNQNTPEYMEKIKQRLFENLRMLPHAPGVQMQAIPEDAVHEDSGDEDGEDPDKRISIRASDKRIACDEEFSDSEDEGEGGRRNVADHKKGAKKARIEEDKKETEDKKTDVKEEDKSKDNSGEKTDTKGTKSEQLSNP
# Protein arginine N-methyltransferase 1, sequence (Q99873 whole entry): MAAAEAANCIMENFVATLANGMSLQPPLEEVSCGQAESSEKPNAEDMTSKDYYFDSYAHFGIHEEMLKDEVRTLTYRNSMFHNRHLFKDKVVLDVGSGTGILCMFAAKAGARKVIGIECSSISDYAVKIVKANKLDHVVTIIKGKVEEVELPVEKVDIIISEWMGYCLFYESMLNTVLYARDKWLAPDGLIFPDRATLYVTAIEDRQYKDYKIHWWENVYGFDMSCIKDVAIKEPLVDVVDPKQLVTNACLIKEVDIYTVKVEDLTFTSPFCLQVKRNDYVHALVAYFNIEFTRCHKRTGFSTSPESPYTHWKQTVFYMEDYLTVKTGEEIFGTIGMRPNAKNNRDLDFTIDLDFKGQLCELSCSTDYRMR
# NAD-dependent protein deacetylase sirtuin-1, sequence (Q96EB6 whole entry): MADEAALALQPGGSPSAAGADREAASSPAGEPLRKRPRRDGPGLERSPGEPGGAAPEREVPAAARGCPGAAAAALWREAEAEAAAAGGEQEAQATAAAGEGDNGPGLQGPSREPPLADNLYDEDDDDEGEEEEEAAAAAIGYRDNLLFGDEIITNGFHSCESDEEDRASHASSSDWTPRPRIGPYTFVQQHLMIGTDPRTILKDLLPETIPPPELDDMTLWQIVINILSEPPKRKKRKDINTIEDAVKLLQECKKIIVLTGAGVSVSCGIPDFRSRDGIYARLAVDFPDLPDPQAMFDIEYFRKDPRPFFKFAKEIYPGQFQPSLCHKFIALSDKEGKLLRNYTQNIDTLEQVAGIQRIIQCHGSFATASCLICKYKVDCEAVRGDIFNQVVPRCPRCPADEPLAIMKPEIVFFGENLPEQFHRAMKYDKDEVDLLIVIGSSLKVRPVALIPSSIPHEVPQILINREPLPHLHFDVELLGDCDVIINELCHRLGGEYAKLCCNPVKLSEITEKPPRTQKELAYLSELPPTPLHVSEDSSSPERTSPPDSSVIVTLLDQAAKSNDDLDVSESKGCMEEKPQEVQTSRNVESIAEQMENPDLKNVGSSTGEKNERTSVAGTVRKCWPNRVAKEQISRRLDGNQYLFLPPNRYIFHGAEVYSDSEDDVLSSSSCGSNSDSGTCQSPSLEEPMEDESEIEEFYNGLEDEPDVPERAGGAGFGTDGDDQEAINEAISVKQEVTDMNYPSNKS
smiles,measurement,setting,value
CCCCCCCCCCCCCCCc1cccc(O)c1C(=O)O [ANACARDIC ACID],IC50,[1],8.5 µM
same,IC50,[2],5 µM
CCNCCCCCCCCCCCCCCCCNC/C=C/CNCCCCCCCCCCCCCCCCNCC,IC50,[3],5 µM
NC1CC1c1c(F)cc(F)cc1OCc1ccccc1 (configuration not stated),IC50,[4],0.99 µM
same,Ratio IC50,Homo sapiens [5],> 250
CC(C)=CCC/C(C)=C/C[C@@H]1C[C@@]2(CC=C(C)C)C(=O)[C@](CC=C(C)C)(C(=O)C(C(=O)c3ccc(O)c(O)c3)=C2O)[C@@]1(C)CCC=C(C)C,IC50,[6],9 µM
same,IC50,[7],22 µM
O=C1CCc2c(c(OCc3ccccc3)cc3ccccc23)O1,Selectivity ratio,Saccharomyces cerevisiae,13
O=C(/C=C/c1ccc(O)c(Br)c1)/C=C/c1cc(Br)c(O)c(Br)c1,IC50,[8],3 µM
same,Ratio IC50,Homo sapiens [9],30
same,Ratio IC50,Homo sapiens [10],10
NC(=O)c1ccccc1Nc1ccccc1 [ANILINOBENZAMIDE],IC50,[11],74 µM
Nc1ccccc1NC(=O)CCCCCCC(=O)Nc1cccc(-c2cn(-c3ccccc3)nn2)c1,IC50,Histone deacetylase 1,> 30 µM
C/N=C(\NC)NCCCNCCCNCCCN/C(=N/C)NC,inhibition,[12],> 50%
COc1ccc(C(=O)Oc2ccc(CCn3c(NC(=O)c4ccc(C(F)(F)F)cc4)nc4cc(C(=O)O)ccc43)cc2)cc1,IC50,[13],1.1 µM
same,IC50,[14],4.7 µM
O=C1CCc2c(ccc3ccccc23)O1 [SPLITOMICIN],IC50,[15],60 µM
CCCCCCCCCCC[C@]1(CO)CCCC(=O)O[C@](CO)(CCCCCCCCCCC)CCCC(=O)O1,IC50,[16],2 µM
same,IC50,[17],0.176 µM
CNCCN1CCC(c2ccc3[nH]c(-c4ccccc4OC)c(F)c3c2)CC1,IC50,[18],0.03 µM
CCCCCCCCCCCCCC(Oc1cccc(OCc2ccccc2)c1)C(=O)O (configuration not stated),IC50,[19],6 µM
CC(=O)N[C@@H](CCCCNC(=O)CSCCNC(=O)CCNC(=O)[C@H](O)C(C)(C)COP(=O)(O)OP(=O)(O)OC[C@H]1O[C@@H](n2cnc3c(N)ncnc32)[C@H](O)[C@@H]1OP(=O)(O)O)C(N)=O,Ki,[20],0.019 µM
COC(=O)/C=C/C(=O)N(O)CCCCNCc1ccc(COC(=O)Nc2cccc3ccccc23)cc1,GI50,[21],5.1 µM
C[C@H](N)C(=O)NCc1cccc(-n2nc(C(F)(F)F)cc2-c2nnc(-c3cccc4[nH]ccc34)o2)c1,IC50,[18],0.027 µM
Nc1ccccc1NC(=O)CCCCCCC(=O)Nc1ccccc1N,IC50,Histone deacetylase 2,4.8 µM
same,IC50,Histone deacetylase 3,0.988 µM
same,IC50,Histone deacetylase 1,14.6 µM
